What was measured:
Assay type in all cases: in vivo
[1] = test system: Puccinia recondita tritici (leaf rust); test: Greenhouse Test 1, foliar spray fungicide screen (LEAF RUST), host wheat; conditions: disease control rating, 400 ppm (+++ at 100 ppm)
[2] = test system: southern armyworm (Spodopetra eridania Cramer); test: Mite/insect screen, sprayed squash leaves (SAW); conditions: Spodoptera eridania, percent mortality, read-out: SAW RESULTS %; for mortality at 200 ppm: spray rate 200 ppm; for mortality at 400 ppm: spray rate 400 ppm
Procedure, shortened: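 Compounds dissolved in acetone/alcohol with TOXIMUL R/S emulsifiers, diluted with water to test concentrations, and sprayed to runoff on both leaf surfaces at 10 psi, then dried 1 h. Excised treated squash leaves given southern armyworm larvae; aphid and spider mite tests on sprayed squash cotyledons. Percent mortality and phytotoxicity scored after standard exposure.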

[3] = test system: Erysiphe graminis tritici (powdery mildew); test: Greenhouse Test 1, foliar spray fungicide screen (POWD MDEW), host wheat; conditions: disease control rating, 400 ppm (+++ at 100 ppm)
[4] = test system: melon aphids (Aphis gossypii Glover); test: Mite/insect screen, sprayed squash cotyledons (MA); conditions: Aphis gossypii, percent mortality, read-out: MA RESULTS %; for mortality at 200 ppm: spray rate 200 ppm; for mortality at 400 ppm: spray rate 400 ppm
Procedure, shortened: (§1)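 Acetone/alcohol (50:50) + emulsifier blends 23 g/L and 13 g/L; water dilution to test concs. Spray both leaf surfaces to runoff, dry 1 h. For armyworm, 2 excised uninfested leaves into Petri dish with larvae. Readout: % mortality, phytotoxicity.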

[5] = test system: Botrytis cinerea (gray mold); test: Greenhouse Test 1, foliar spray fungicide screen (GRAY MOLD), host grape berries; conditions: disease control rating, 400 ppm (+++ at 100 ppm)
[6] = test system: Pseudoperonospora cubensis (downy mildew); test: Greenhouse Test 1, foliar spray fungicide screen (DOWN MDEW), host squash; conditions: disease control rating, 400 ppm (+++ at 100 ppm)
[7] = test system: Pyricularia oryzae (rice blast); conditions: disease control rating, foliar spray, host rice; 400 ppm (+++ at 100 ppm)
[8] = test system: Twospotted spider mites (Tetranychus urticae Koch); test: Mite/insect screen, sprayed squash cotyledons (SM); conditions: Tetranychus urticae, percent mortality, read-out: SM RESULTS %; for mortality at 200 ppm: spray rate 200 ppm; for mortality at 400 ppm: spray rate 400 ppm
Procedure, shortened: as §1

[9] = test system: Southern corn rootworm (Diabrotica undecimpuctata howardi Barber); test: Mite/insect screen, soil treatment (CRW); conditions: Diabrotica, percent mortality, soil treatment, read-out: CRW RESULTS %; for mortality at 12 ppm: CRW rate 12.00 ppm; for mortality at 24 ppm: CRW rate 24.00 ppm
Procedure, shortened: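 Compounds dissolved in acetone/alcohol (50:50) with Toximul R/S emulsifiers, diluted with water. Soil (15 g, with presoaked corn seed) treated with 1 mL test solution, dried 6–12 h, then five 2–3 instar larvae added; held at 23°C. Percent mortality and phytotoxicity scored after standard exposure periods.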

SMILES | LEAF RUST [1] | mortality at 200 ppm [2] [%] | mortality at 400 ppm [2] [%] | POWD MDEW [3] | mortality at 200 ppm [4] [%] | mortality at 400 ppm [4] [%] | GRAY MOLD [5] | DOWN MDEW [6] | RICE BLAST [7] | mortality at 200 ppm [8] [%] | mortality at 400 ppm [8] [%] | mortality at 12 ppm [9] [%] | mortality at 24 ppm [9] [%]
CC(COc1ncnc2ccccc12)c1ccc(Oc2ccccc2)cc1 (stereo not drawn) [Example 161, 4-[2-(4-phenoxyphenyl)propoxy]quinazoline] | ++ (++ = 90-100% control at 400 ppm) | 20 | 100 | + (+ = 20-89% control at 400 ppm) | 30 | 0 | - (- = 0-19% control at 400 ppm) | - (- = 0-19% control at 400 ppm) | + (+ = 20-89% control at 400 ppm) | 70 | 0 | 0 | 100
CCc1ccc(CCOc2ncnc3ccccc23)cc1 [Example 65, 4-[2-(4-ethylphenyl)ethoxy]quinazoline] | +++ (+++ = 90-100% control at 100 ppm) |  | 0 | +++ (+++ = 90-100% control at 100 ppm) |  | 100 | - (- = 0-19% control at 400 ppm) | +++ (+++ = 90-100% control at 100 ppm) | +++ (+++ = 90-100% control at 100 ppm) |  | 100 |  | 0
Cc1cccc2ncnc(NCCc3ccc(Cl)cc3)c12 [Example 36, N-[2-(4-chlorophenyl)ethyl]-5-methyl-4-quinazolinamine] | - (- = 0-19% control at 400 ppm) | 0 | 0 | - (- = 0-19% control at 400 ppm) | 0 | 0 | - (- = 0-19% control at 400 ppm) | + (+ = 20-89% control at 400 ppm) | + (+ = 20-89% control at 400 ppm) | 0 | 0 | 0 | 0
CC(Cc1ccccc1)Oc1ncnc2ccccc12 (stereo not drawn) [Example 18, 4-(1-methyl-2-phenylethoxy)quinazoline] | + (+ = 20-89% control at 400 ppm) |  | 0 | ++ (++ = 90-100% control at 400 ppm) |  | 0 | - (- = 0-19% control at 400 ppm) | ++ (++ = 90-100% control at 400 ppm) | + (+ = 20-89% control at 400 ppm) |  | 0 |  | 100
COc1ccc(CCOc2ncnc3c(F)cccc23)cc1 [Example 132, 8-fluoro-4-[2-(4-methoxyphenyl)ethoxy]quinazoline] | +++ (+++ = 90-100% control at 100 ppm) | 0 | 0 | +++ (+++ = 90-100% control at 100 ppm) | 80 | 0 | - (- = 0-19% control at 400 ppm) | +++ (+++ = 90-100% control at 100 ppm) | +++ (+++ = 90-100% control at 100 ppm) | 20 | 0 | 0 | 0
CC(CNc1ncnc2c(F)cccc12)c1ccc(Cl)cc1 (stereo not drawn) [Example 17, N-[2-(4-chlorophenyl)propyl]-8-fluoro-4-quinazolinamine] | +++ (+++ = 90-100% control at 100 ppm) |  | 0 | ++ (++ = 90-100% control at 400 ppm) |  | 100 | - (- = 0-19% control at 400 ppm) | +++ (+++ = 90-100% control at 100 ppm) | +++ (+++ = 90-100% control at 100 ppm) |  | 100 |  | 0
CC(COc1ncnc2ccccc12)c1ccc(-c2ccccc2)cc1 (stereo not drawn) [Example 187, 4-[2-(1,1'-biphenyl)-4-ylpropoxy]quinazoline] | + (+ = 20-89% control at 400 ppm) | 0 | 0 | - (- = 0-19% control at 400 ppm) | 0 | 0 | - (- = 0-19% control at 400 ppm) | + (+ = 20-89% control at 400 ppm) | +++ (+++ = 90-100% control at 100 ppm) | 0 | 0 | 0 | 0
c1ccc(Oc2ccc(CCOc3ncnc4ccccc34)cc2)cc1 [Example 69, 4-[2-(4-phenoxyphenyl)ethoxy]quinazoline] | +++ (+++ = 90-100% control at 100 ppm) |  | 100 | +++ (+++ = 90-100% control at 100 ppm) |  | 0 | - (- = 0-19% control at 400 ppm) | +++ (+++ = 90-100% control at 100 ppm) | +++ (+++ = 90-100% control at 100 ppm) |  | 100 |  | 0
c1ccc(CCOc2ncnc3ccccc23)cc1 [Example 33, 4-(2-phenylethoxy)quinazoline] | +++ (+++ = 90-100% control at 100 ppm) | 0 | 0 | ++ (++ = 90-100% control at 400 ppm) | 80 | 100 | - (- = 0-19% control at 400 ppm) | ++ (++ = 90-100% control at 400 ppm) | - (- = 0-19% control at 400 ppm) | 50 | 80 | 0 | 80
COc1cccc(CCOc2ncnc3ccccc23)c1 [Example 13, 4-[2-(3-methoxyphenyl)ethoxy]quinazoline] | +++ (+++ = 90-100% control at 100 ppm) |  | 0 | +++ (+++ = 90-100% control at 100 ppm) |  | 90 | - (- = 0-19% control at 400 ppm) | +++ (+++ = 90-100% control at 100 ppm) | +++ (+++ = 90-100% control at 100 ppm) |  | 90 |  | 0
CCOc1ccc(CCOc2ncnc3ccccc23)cc1 [Example 15, 4-[2-(4-ethoxyphenyl)ethoxy]quinazoline] | +++ (+++ = 90-100% control at 100 ppm) |  | 0 | +++ (+++ = 90-100% control at 100 ppm) |  | 0 | - (- = 0-19% control at 400 ppm) | +++ (+++ = 90-100% control at 100 ppm) | +++ (+++ = 90-100% control at 100 ppm) |  | 0 |  | 0
CC(C)c1ccc(CCNc2ncnc3ccc(Br)cc23)cc1 [Example 79, 6-bromo-N-[2-[4-(i-propyl)phenyl]ethyl]-4-quinazolinamine] | ++ (++ = 90-100% control at 400 ppm) | 0 | 0 | + (+ = 20-89% control at 400 ppm) | 50 | 0 | - (- = 0-19% control at 400 ppm) | +++ (+++ = 90-100% control at 100 ppm) | +++ (+++ = 90-100% control at 100 ppm) | 50 | 0 | 0 | 0

Reference: patent publication EP0326329B1, “Quinazoline derivatives useful as insecticides” (Dow AgroSciences LLC, priority 1988, dated 1989)
